# According to ChEMBL document CHEMBL4308841, “Synthesis, in vitro antiproliferative activity, and kinase inhibitory effects of pyrazole-containing diarylureas and diarylamides” (Eur J Med Chem, 2018):
# Legend:
# [1] = test system: NCI/ADR-RES; assay: Growth inhibition of human NCI/ADR-RES cells assessed as cell growth at 0.1 uM incubated for 48 hrs by sulforhodamine B assay relative to control; format: functional; conditions: read-out: Activity
# [2] = test system: SK-MEL-28; assay: Growth inhibition of human SK-MEL-28 cells assessed as cell growth at 0.1 uM incubated for 48 hrs by sulforhodamine B assay relative to control; format: functional; conditions: SK-MEL-28, 48 h, read-out: Activity
# [3] = test system: KM12; assay: Growth inhibition of human KM12 cells assessed as cell growth at 1 uM incubated for 48 hrs by sulforhodamine B assay relative to control; format: functional; conditions: KM12, 48 h, read-out: Activity
# [4] = test system: UO-31; assay: Growth inhibition of human UO31 cells assessed as cell growth at 1 uM incubated for 48 hrs by sulforhodamine B assay relative to control; format: functional; conditions: UO-31, 48 h, read-out: Activity
# [5] = test system: MCF7; assay: Growth inhibition of human MCF7 cells incubated for 48 hrs by sulforhodamine B assay; format: functional, cell-based; conditions: MCF7, 48 h
# [6] = test system: SF-539; assay: Growth inhibition of human SF539 cells assessed as cell growth at 0.01 uM incubated for 48 hrs by sulforhodamine B assay relative to control; format: functional; conditions: SF-539, 48 h, read-out: Activity
# [7] = test system: SF-295; assay: Growth inhibition of human SF295 cells assessed as cell growth at 0.1 uM incubated for 48 hrs by sulforhodamine B assay relative to control; format: functional; conditions: SF-295, 48 h, read-out: Activity
# [8] = test system: NCI-H460; assay: Growth inhibition of human NCI-H460 cells assessed as cell growth at 0.1 uM incubated for 48 hrs by sulforhodamine B assay relative to control; format: functional; conditions: NCI-H460, 48 h, read-out: Activity
# [9] = test system: MDA-MB-435; assay: Growth inhibition of human MDA-MB-435 cells assessed as cell growth at 0.1 uM incubated for 48 hrs by sulforhodamine B assay relative to control; format: functional; conditions: MDA-MB-435, 48 h, read-out: Activity
# [10] = test system: MDA-MB-435; assay: Growth inhibition of human MDA-MB-435 cells assessed as cell growth at 1 uM incubated for 48 hrs by sulforhodamine B assay relative to control; format: functional; conditions: MDA-MB-435, 48 h, read-out: Activity
# [11] = test system: NCI-H226; assay: Growth inhibition of human NCI-H226 cells assessed as cell growth at 100 uM incubated for 48 hrs by sulforhodamine B assay relative to control; format: functional; conditions: NCI-H226, 48 h, read-out: Activity
# [12] = test system: MCF7; assay: Growth inhibition of human MCF7 cells assessed as cell growth at 0.1 uM incubated for 48 hrs by sulforhodamine B assay relative to control; format: functional; conditions: MCF7, 48 h, read-out: Activity
# [13] = test system: OVCAR-3; assay: Growth inhibition of human OVCAR3 cells assessed as cell growth at 100 uM incubated for 48 hrs by sulforhodamine B assay relative to control; format: functional; conditions: OVCAR-3, 48 h, read-out: Activity
# [14] = test system: IGROV-1; assay: Growth inhibition of human IGROV1 cells assessed as cell growth at 100 uM incubated for 48 hrs by sulforhodamine B assay relative to control; format: functional; conditions: IGROV-1, 48 h, read-out: Activity
# [15] = test system: OVCAR-4; assay: Growth inhibition of human OVCAR4 cells assessed as cell growth at 0.1 uM incubated for 48 hrs by sulforhodamine B assay relative to control; format: functional; conditions: OVCAR-4, 48 h, read-out: Activity
# [16] = test system: CCRF-CEM; assay: Growth inhibition of human CCRF-CEM cells assessed as cell growth at 0.01 uM incubated for 48 hrs by sulforhodamine B assay relative to control; format: functional; conditions: read-out: Activity
# [17] = test system: NCI-H522; assay: Growth inhibition of human NCI-H522 cells assessed as cell growth at 100 uM incubated for 48 hrs by sulforhodamine B assay relative to control; format: functional; conditions: NCI-H522, 48 h, read-out: Activity
# [18] = test system: OVCAR-4; assay: Growth inhibition of human OVCAR4 cells assessed as cell growth at 100 uM incubated for 48 hrs by sulforhodamine B assay relative to control; format: functional; conditions: OVCAR-4, 48 h, read-out: Activity
# [19] = test system: M14; assay: Growth inhibition of human M14 cells assessed as cell growth at 1 uM incubated for 48 hrs by sulforhodamine B assay relative to control; format: functional; conditions: M14, 48 h, read-out: Activity
# [20] = test system: A498; assay: Growth inhibition of human A498 cells assessed as cell growth at 1 uM incubated for 48 hrs by sulforhodamine B assay relative to control; format: functional; conditions: A498, 48 h, read-out: Activity
# [21] = test system: MDA-MB-231; assay: Growth inhibition of human MDA-MB-231 cells assessed as cell growth at 1 uM incubated for 48 hrs by sulforhodamine B assay relative to control; format: functional; conditions: MDA-MB-231, 48 h, read-out: Activity
# [22] = test system: CCRF-CEM; assay: Growth inhibition of human CCRF-CEM cells assessed as cell growth at 1 uM incubated for 48 hrs by sulforhodamine B assay relative to control; format: functional; conditions: read-out: Activity
# [23] = test system: RXF 393; assay: Growth inhibition of human RXF393 cells incubated for 48 hrs by sulforhodamine B assay; format: functional, cell-based; conditions: RXF 393, 48 h
# [24] = test system: SK-MEL-28; assay: Growth inhibition of human SK-MEL-28 cells assessed as cell growth at 1 uM incubated for 48 hrs by sulforhodamine B assay relative to control; format: functional; conditions: SK-MEL-28, 48 h, read-out: Activity
# [25] = test system: SW-620; assay: Growth inhibition of human SW620 cells assessed as cell growth at 0.1 uM incubated for 48 hrs by sulforhodamine B assay relative to control; format: functional; conditions: SW-620, 48 h, read-out: Activity
# [26] = test system: SK-MEL-2; assay: Growth inhibition of human SK-MEL-2 cells incubated for 48 hrs by sulforhodamine B assay; format: functional, cell-based; conditions: SK-MEL-2, 48 h
# [27] = test system: SK-MEL-5; assay: Growth inhibition of human SK-MEL-5 cells assessed as cell growth at 100 uM incubated for 48 hrs by sulforhodamine B assay relative to control; format: functional; conditions: SK-MEL-5, 48 h, read-out: Activity
# [28] = test system: SK-OV-3; assay: Growth inhibition of human SKOV3 cells assessed as cell growth at 0.01 uM incubated for 48 hrs by sulforhodamine B assay relative to control; format: functional; conditions: SK-OV-3, 48 h, read-out: Activity
# [29] = test system: MOLT-4; assay: Growth inhibition of human MOLT4 cells assessed as cell growth at 0.1 uM incubated for 48 hrs by sulforhodamine B assay relative to control; format: functional; conditions: MOLT-4, 48 h, read-out: Activity
# [30] = test system: CAKI-1; assay: Growth inhibition of human Caki1 cells assessed as cell growth at 100 uM incubated for 48 hrs by sulforhodamine B assay relative to control; format: functional; conditions: CAKI-1, 48 h, read-out: Activity
# [31] = test system: HL-60(TB); assay: Growth inhibition of human HL-60(TB) cells incubated for 48 hrs by sulforhodamine B assay; format: functional, cell-based; conditions: HL-60, 48 h
# [32] = read-out: LC50 (the source's name)
# [33] = read-out: pLC50 (the source's name) (converted)
structure (smiles),measurement,setting,value
O=C(Nc1cccc(-n2cc(-c3ccncc3)c(-c3cc(O)cc(Cl)c3)n2)c1)c1cc(C(F)(F)F)cc(C(F)(F)F)c1,growth at 0.1 µM,[1],100%
same,growth at 0.1 µM,[2],103%
same,growth at 1 µM,[3],79%
same,growth at 1 µM,[4],71%
same,GI50,[5]; read-out: GI50,2.55 µM
same,LC50,[5]; read-out: LC50,> 100 µM
same,TGI,[5]; read-out: TGI,> 100 µM
same,GI50,[5]; read-out: pGI50 (converted),2.88 µM
same,LC50,[5]; read-out: pLC50 (converted),> 100 µM
same,TGI,[5]; read-out: pTGI (converted),> 100 µM
same,growth at 0.01 µM,[6],98%
same,growth at 0.1 µM,[7],89%
same,growth at 0.1 µM,[8],100%
same,growth at 0.1 µM,[9],95%
same,growth at 1 µM,[10],88%
same,growth at 100 µM,[11],19%
same,growth at 0.1 µM,[12],92%
same,growth at 100 µM,[13],-10%
same,growth at 100 µM,[14],22%
same,growth at 0.1 µM,[15],104%
same,growth at 0.01 µM,[16],96%
same,growth at 100 µM,[17],-18%
same,growth at 100 µM,[18],15%
same,growth at 1 µM,[19],85%
same,growth at 1 µM,[20],78%
same,growth at 1 µM,[21],70%
same,growth at 1 µM,[22],56%
same,LC50,[23],24.5 µM
same,GI50,[23]; read-out: GI50,1.59 µM
same,TGI,[23]; read-out: TGI,43.6 µM
same,GI50,[23]; read-out: pGI50 (converted),1.7 µM
same,TGI,[23]; read-out: pTGI (converted),4.37 µM
same,growth at 1 µM,[24],55%
same,growth at 0.1 µM,[25],98%
same,GI50,[26]; read-out: GI50,3.28 µM
same,CC50,[26]; [32],> 100 µM
same,TGI,[26]; read-out: TGI,95.1 µM
same,GI50,[26]; read-out: pGI50 (converted),3.31 µM
same,CC50,[26]; [33],> 100 µM
same,TGI,[26]; read-out: pTGI (converted),9.55 µM
same,growth at 100 µM,[27],-45%
same,growth at 0.01 µM,[28],102%
same,growth at 0.1 µM,[29],89%
same,growth at 100 µM,[30],7%
COc1cc(Cl)cc(-c2nn(-c3cccc(NC(=O)Nc4ccc(Cl)c(C(F)(F)F)c4)c3)cc2-c2ccncc2)c1,growth at 0.1 µM,[1],69%
same,growth at 0.1 µM,[2],106%
same,growth at 1 µM,[3],33%
same,growth at 1 µM,[4],64%
same,GI50,[5]; read-out: GI50,1.01 µM
same,LC50,[5]; read-out: LC50,> 100 µM
same,TGI,[5]; read-out: TGI,11 µM
same,GI50,[5]; read-out: pGI50 (converted),1.02 µM
same,LC50,[5]; read-out: pLC50 (converted),> 100 µM
same,TGI,[5]; read-out: pTGI (converted),11 µM
same,growth at 0.01 µM,[6],96%
same,growth at 0.1 µM,[7],98%
same,growth at 0.1 µM,[8],102%
same,growth at 0.1 µM,[9],93%
same,growth at 1 µM,[10],81%
same,growth at 100 µM,[11],-29%
same,growth at 0.1 µM,[12],93%
same,growth at 100 µM,[13],-56%
same,growth at 100 µM,[14],-16%
same,growth at 0.1 µM,[15],97%
same,growth at 0.01 µM,[16],97%
same,growth at 100 µM,[17],-66%
same,GI50,[31]; read-out: GI50,1.55 µM
same,LC50,[31]; read-out: LC50,> 100 µM
same,TGI,[31]; read-out: TGI,55.3 µM
same,GI50,[31]; read-out: pGI50 (converted),1.66 µM
same,LC50,[31]; read-out: pLC50 (converted),> 100 µM
same,TGI,[31]; read-out: pTGI (converted),5.5 µM
same,growth at 100 µM,[18],-16%
same,growth at 1 µM,[19],65%
same,growth at 1 µM,[20],78%
same,growth at 1 µM,[21],69%
same,growth at 1 µM,[22],37%
same,LC50,[23],28.2 µM
same,GI50,[23]; read-out: GI50,1.71 µM
same,TGI,[23]; read-out: TGI,44.2 µM
same,GI50,[23]; read-out: pGI50 (converted),1.7 µM
same,TGI,[23]; read-out: pTGI (converted),9.33 µM
same,growth at 1 µM,[24],85%
same,growth at 0.1 µM,[25],96%
same,GI50,[26]; read-out: GI50,1.79 µM
same,CC50,[26]; [32],9.59 µM
same,TGI,[26]; read-out: TGI,42.1 µM
same,GI50,[26]; read-out: pGI50 (converted),1.78 µM
same,CC50,[26]; [33],10 µM
same,TGI,[26]; read-out: pTGI (converted),4.37 µM
same,growth at 100 µM,[27],-77%
same,growth at 0.01 µM,[28],104%
same,growth at 0.1 µM,[29],57%
same,growth at 100 µM,[30],-40%
